Here are results for 1 compound from patent publication US20250303062A1, “Methods for controlling drug administration” (NUTROMICS […] LTD, priority 2022, published 2025).

Series [1] addresses DNA-aptamer for vancomycin. Nature of the series: Titration curve of vancomycin EAB sensor by square-wave voltammetry, dissociation constant of the aptamer. It is filed as binding. As for the experimental part: Each combination of electrode/matrix was electrochemically interrogated via square-wave voltammetry to obtain two set of data: • A frequency map, where the signal-on and signal-off frequencies were determined for a particular amplitude. • A titration curve, where the sensor is interrogated at several concentrations of vancomycin by using the optimal signal-on frequency (responsible for the sensing event).
The titration curve also allowed determination of the dissociation constant of the aptamer in the employed matrix.
• Estart=between −0.5 and −0.4 V • Efinal=between −0.2 and −0.1 V • Eref=Ag|AgCl
• fix A=optimal amplitude (25 mV for vancomycin-in-vitro) • scan f=optimal signal-on value (between 80 and 100 Hz) and signal-off value (lower than 15 Hz)
Reference is made to FIG. 13 showing response of a vancomycin sensitive microelectrode (d=340 μm) in (i) human serum and (artificial ISF including BSA, and globulin as described above). The following equation describes an isotherm that represents the response of the sensing layer to the presence of different concentrations of vancomycin.
Reference is made to FIG. 17, showing data comparing the use of two different mathematical approaches for obtaining KD, which generated consisting fitting.

A short description of series [2]: Human study: vancomycin in ISF by wearable EAB sensor vs serum. It is filed as in vivo. As to conditions: healthy participants, single intravenous infusion 1 gram over 1 hour 40 minutes, ISF measured every 5 minutes. The protocol: These human studies followed vancomycin levels using an EAB sensor (which may also be referred to as the “device”). The device was a self-contained wearable EAB sensor, constructed, having an on-board power supply, electrodes, and electronics, including a microprocessor and BlueTooth™ communications module.
A vancomycin-sensitive EAB sensor was placed onto the participant's upper arm (see FIG. 20), opposite the arm where vancomycin was being infused. The time of device application was recorded. The device was applied 30 minutes (+15 minutes) prior to administering the vancomycin infusion and the device was removed up to 10 hours post-cessation of the infusion.
30 minutes (+15 minutes) post-application of the device, the participant received a single dose of vancomycin as an intravenous infusion (1 gram over 1 hour 40 minutes). The time of administration and completion of infusion was recorded. […]
Square Wave Voltammetry (SWV) was used to interrogate the DNA-based sensor electrodes. […] Use the determined peak currents magnitudes obtained at two different SWV interrogation frequencies (in this case 50 Hz and 300 Hz), when no vancomycin is present and when it is present to calculate an analyte concentration responsive signal(S). • 4. […]

With `CN[C@H](CC(C)C)C(=O)N[C@H]1C(=O)N[C@@H](CC(N)=O)C(=O)N[C@H]2C(=O)N[C@H]3C(=O)N[C@H](C(=O)N[C@H](C(=O)O)c4cc(O)cc(O)c4-c4cc3ccc4O)[C@H](O)c3ccc(c(Cl)c3)Oc3cc2cc(c3O[C@@H]2O[C@H](CO)[C@@H](O)[C@H](O)[C@H]2O[C@H]2C[C@](C)(N)[C@H](O)[C@H](C)O2)Oc2ccc(cc2Cl)[C@H]1O` [vancomycin], the KD result in series [1] (human serum, smaller sensing area (microelectrode d=170 μm), two mathematical approaches) is given as “preserved”. Besides, the “KD (the dissociation constant of the DNA aptamer)” value in series [1] (microelectrode d=340 μm, synthetic interstitial fluid containing proteins compared with human serum) is given as “similar”. Moreover, in series [2], the “vancomycin in the ISF compartment (ISF vs blood)” value is reported as “high variation”.
